According to patent publication US12186283B2, “Bismuth-thiol compositions and methods of use” (Microbion Corporation, priority 2018, dated 2025):
In brackets after ≈: the same amount, converted by molar mass. Read-outs that look alike come from different tables or passages of the source.

Tests used:
[1] = test system: Burkholderia cepacia complex; experiment: Checkerboard FIC assay, BisEDT with CF agents (Example 10); type: cell-based, Burkholderia spp.; settings: for MIC: agent alone, as observed during FIC testing
[2] = test system: P. aeruginosa; experiment: Broth microdilution MIC (Example 10)
[3] = test system: Burkholderia cepacia complex; experiment: Broth microdilution MIC (Example 10); settings: initial MIC testing
[4] = test system: Enterococcus spp. (E. faecalis, E. faecium); experiment: Broth microdilution MIC (Example 11); type: cell-based; settings: Enterococcus faecium, VRE, E. faecium MMX 485; VRE, vanA, LevR, CipR, EryR; read-out: MIC
[5] = test system: beta-hemolytic streptococci (S. pyogenes, S. agalactiae); experiment: Broth microdilution MIC (Example 11); type: cell-based, Streptococcus pyogenes, Streptococcus agalactiae; settings: read-out: MIC
[6] = test system: Candida albicans; experiment: Broth microdilution MIC, yeast (Example 13); type: cell-based; settings: 24 hr
[7] = test system: Candida glabrata; experiment: Broth microdilution MIC, yeast (Example 13); type: cell-based
[8] = test system: Candida krusei; experiment: Broth microdilution MIC, yeast (Example 13); type: cell-based
[9] = test system: Candida auris; experiment: Broth microdilution MIC, yeast (Example 13); type: cell-based
[10] = test system: Aspergillus spp.; experiment: Broth microdilution MIC/MEC, mold (Example 13); type: cell-based; settings: comparators, read time not given
[11] = test system: P. aeruginosa; experiment: Checkerboard FIC assay, BisEDT with CF agents (Example 10); type: cell-based, Pseudomonas aeruginosa; settings: for FICB: Colistin FIC in combination with BisEDT; for FICB / MICB: per checkerboard row; for MICB: Colistin MIC in combination with BisEDT; for Drug B MIC: Colistin alone (checkerboard with BisEDT)
[12] = S. agalactiae MMX 3741, ERY^R CC^R
[13] = S. agalactiae MMX 3743, ERY^R CC^R
[14] = S. agalactiae MMX 4077, ERY^R CC^R
[15] = S. agalactiae MMX 4079, ERY^R CC^R Pen^R MEM^R
[16] = S. agalactiae MMX 4086, ERY^R CC^R

C[C@H]1[C@H](NC(=O)/C(=N\OC(C)(C)C(=O)O)c2csc(N)n2)C(=O)N1S(=O)(=O)O [AZT]
MIC ([1]; B. cenocepacia isolate 0548): 64 µg/mL
MIC ([1]; B. cenocepacia isolate 0813): 32 µg/mL
MIC ([1]; B. multivorans isolate 1795): 16 µg/mL
MIC ([2]; P. aeruginosa isolate 103 (ATCC 25922), QC strain, initial MIC testing): 8 µg/mL (≈ 18.4 µM)
MIC ([2]; P. aeruginosa isolate 103 (ATCC 25922), during FIC testing, each agent tested alone for QC, one replicate): 8 µg/mL
MIC ([2]; P. aeruginosa isolate 1497 (TOB-R, AMK-R, CIP-I, AZT-R, COL-R), initial MIC testing): 32 µg/mL (≈ 73.5 µM)
MIC ([2]; P. aeruginosa isolate 1530 (TOB-R, AMK-R, CIP-R), initial MIC testing): 4 µg/mL (≈ 9.19 µM)
MIC ([2]; P. aeruginosa isolate 1553 (TOB-R, AMK-R, CIP-R), initial MIC testing): 8 µg/mL (≈ 18.4 µM)
MIC ([2]; P. aeruginosa isolate 6322 (MEM-R, TOB-R, AMK-R, CIP-R, AZT-R), initial MIC testing): 64 µg/mL (≈ 147 µM)
MIC ([2]; P. aeruginosa isolate 6977 (MEM-I, TOB-R, CIP-R, AZT-I), initial MIC testing): 16 µg/mL (≈ 36.7 µM)
MIC ([2]; P. aeruginosa isolate 7745 (MEM-R, CIP-R, AZT-R), initial MIC testing): 32 µg/mL (≈ 73.5 µM)
MIC ([2]; P. aeruginosa isolate 7754 (MEM-R, TOB-R, CIP-R, AZT-I), initial MIC testing): 16 µg/mL (≈ 36.7 µM)
MIC ([2]; P. aeruginosa isolate 7762 (MEM-I, CIP-I), initial MIC testing): 8 µg/mL (≈ 18.4 µM)
MIC ([2]; P. aeruginosa isolate 7871 (MEM-R, AZT-I), initial MIC testing): 16 µg/mL (≈ 36.7 µM)
MIC ([2]; P. aeruginosa isolate 7874, initial MIC testing): 4 µg/mL (≈ 9.19 µM)
MIC ([2]; P. aeruginosa isolate 7886 (MEM-R, CIP-R, AZT-R), initial MIC testing): 64 µg/mL (≈ 147 µM)
MIC ([2]; P. aeruginosa isolate 8797 (MEM-R, TOB-R, AMK-R, CIP-R, AZT-R, COL-R), initial MIC testing): >256 µg/mL
MIC ([2]; P. aeruginosa isolate 8798 (MEM-R, TOB-R, AMK-R, CIP-R, AZT-R, COL-R), initial MIC testing): 256 µg/mL (≈ 588 µM)
MIC ([2]; P. aeruginosa isolate 9108 (CIP-R, AZT-I), initial MIC testing): 16 µg/mL (≈ 36.7 µM)
MIC ([3]; B. cenocepacia isolate 0813 (CPI-I)): 8 µg/mL (≈ 18.4 µM)
MIC ([3]; B. cenocepacia isolate 1631): 32 µg/mL (≈ 73.5 µM)
MIC ([3]; B. cenocepacia isolate 1783): 32 µg/mL (≈ 73.5 µM)
MIC ([3]; B. cenocepacia isolate 8555): 256 µg/mL (≈ 588 µM)
MIC ([3]; B. cepacia isolate 0546): 16 µg/mL (≈ 36.7 µM)
MIC ([3]; B. cepacia isolate 0547): 16 µg/mL (≈ 36.7 µM)
MIC ([3]; B. cepacia isolate 1793): 128 µg/mL (≈ 294 µM)
MIC ([3]; B. cepacia isolate 1794): 32 µg/mL (≈ 73.5 µM)
MIC ([3]; B. cepacia isolate 9040): 32 µg/mL (≈ 73.5 µM)
MIC ([3]; B. multivorans isolate 1580 (CIP-R)): 64 µg/mL (≈ 147 µM)
MIC ([3]; B. multivorans isolate 1791): 4 µg/mL (≈ 9.19 µM)
MIC ([3]; B. multivorans isolate 1795 (MEM-I, CIP-R)): 4 µg/mL (≈ 9.19 µM)
MIC ([3]; B. multivorans isolate 5665 (CIP-I)): 4 µg/mL (≈ 9.19 µM)
MIC ([3]; B. multivorans isolate 8952 (CIP-I)): 8 µg/mL (≈ 18.4 µM)

C[C@H]1COc2c(N3CCN(C)CC3)c(F)cc3c(=O)c(C(=O)O)cn1c23 [Levofloxacin, reference compound]
MIC [4]: > 64 µg/mL
MIC [5, 12]: 0.5 µg/mL (≈ 1.38 µM)
MIC [5, 13]: 1 µg/mL (≈ 2.77 µM)
MIC [5, 14]: 0.5 µg/mL (≈ 1.38 µM)
MIC [5, 15]: 1 µg/mL (≈ 2.77 µM)
MIC [5, 16]: 0.5 µg/mL (≈ 1.38 µM)

C[C@@H](c1ncncc1F)[C@](O)(Cn1cncn1)c1ccc(F)cc1F [VORI]
MIC2 (50% inhibition) ([6]; Candida albicans ATCC 90028, Susceptible): ≤0.008 µg/mL
MIC2 (50% inhibition) ([6]; Candida albicans ATCC 204276, MICA-R): ≤0.008 µg/mL
MIC2 (50% inhibition) ([6]; Candida albicans ATCC MYA-2732, FLU-R, VORI-I): 0.5 µg/mL
MIC2 (50% inhibition) ([6]; Candida albicans MMX 7053, Susceptible): ≤0.008 µg/mL
MIC2 (50% inhibition) ([6]; Candida albicans MMX 7067, FLU-R, VORI-R): >8 µg/mL
MIC2 (50% inhibition) ([6]; Candida albicans MMX 7403, Susceptible): ≤0.008 µg/mL
MIC2 (50% inhibition) ([6]; Candida albicans MMX 7424, CASP-R, MICA-R): ≤0.008 µg/mL
MIC2 (50% inhibition) ([6]; Candida albicans MMX 7430, Susceptible): ≤0.008 µg/mL
MIC2 (50% inhibition) ([6]; Candida albicans MMX 7437, FLU-I): 0.12 µg/mL
MIC2 (50% inhibition) ([6]; Candida albicans MMX 7445, FLU-R, VORI-R): >8 µg/mL
MIC2 (50% inhibition) ([7]; Candida glabrata ATCC 90030, Susceptible): 0.12 µg/mL
MIC2 (50% inhibition) ([7]; Candida glabrata ATCC MYA-2950, Susceptible): 0.12 µg/mL
MIC2 (50% inhibition) ([7]; Candida glabrata MMX 7087, Susceptible): 0.03 µg/mL
MIC2 (50% inhibition) ([7]; Candida glabrata MMX 7093, FLU-R): 2 µg/mL
MIC2 (50% inhibition) ([7]; Candida glabrata MMX 7101, FLU-R): 2 µg/mL
MIC2 (50% inhibition) ([7]; Candida glabrata MMX 7103, CASP-R, MICA-R): 0.12 µg/mL
MIC2 (50% inhibition) ([7]; Candida glabrata MMX 7111, Susceptible): 0.06 µg/mL
MIC2 (50% inhibition) ([7]; Candida glabrata MMX 7285, CASP-R, MICA-R): 1 µg/mL
MIC2 (50% inhibition) ([7]; Candida glabrata MMX 7307, CASP-R, MICA-R, FLU-R): 4 µg/mL
MIC2 (50% inhibition) ([7]; Candida glabrata MMX 7549, Susceptible): 0.06 µg/mL
MIC2 (50% inhibition) ([8]; C. krusei ATCC 6258, MICA-I): 0.12 µg/mL
MIC2 (50% inhibition) ([8]; C. krusei ATCC 14243, Susceptible): 0.06 µg/mL
MIC2 (50% inhibition) ([8]; C. krusei ATCC 96685, Susceptible): 0.5 µg/mL
MIC2 (50% inhibition) ([8]; C. krusei MMX 7125, Susceptible): 0.25 µg/mL
MIC2 (50% inhibition) ([8]; C. krusei MMX 7128, Susceptible): 0.12 µg/mL
MIC2 (50% inhibition) ([8]; C. krusei MMX 7141, Susceptible): 0.12 µg/mL
MIC2 (50% inhibition) ([8]; C. krusei MMX 7153, MICA-R): 0.25 µg/mL
MIC2 (50% inhibition) ([8]; C. krusei MMX 7155, Susceptible): 0.25 µg/mL
MIC2 (50% inhibition) ([8]; C. krusei MMX 7563, Susceptible): 0.25 µg/mL
MIC2 (50% inhibition) ([8]; C. krusei MMX 9878, MICA-I, VORI-I): 1 µg/mL
MIC2 (50% inhibition) ([9]; C. auris MMX 9862, Susceptible): 0.03 µg/mL
MIC2 (50% inhibition) ([9]; C. auris MMX 9863, FLU-R, VORI-R): >8 µg/mL
MIC2 (50% inhibition) ([9]; C. auris MMX 9864, FLU-R, VORI-R): 2 µg/mL
MIC2 (50% inhibition) ([9]; C. auris MMX 9865, FLU-R, VORI-R): 8 µg/mL
MIC2 (50% inhibition) ([9]; C. auris MMX 9866, FLU-R, VORI-R): 8 µg/mL
MIC2 (50% inhibition) ([9]; C. auris MMX 9867, FLU-R, VORI-R): 8 µg/mL
MIC2 (50% inhibition) ([9]; C. auris MMX 9868, FLU-R, VORI-R): >8 µg/mL
MIC2 (50% inhibition) ([9]; C. auris MMX 9869, FLU-R, VORI-R): 2 µg/mL
MIC2 (50% inhibition) ([9]; C. auris MMX 9870, FLU-R, VORI-R): 4 µg/mL
MIC2 (50% inhibition) ([9]; C. auris MMX 9871, Susceptible): 1 µg/mL
MIC0 (complete inhibition) ([10]; A. flavus ATCC 22546): 1 µg/mL
MIC0 (complete inhibition) ([10]; A. flavus ATCC 204304): 2 µg/mL
MIC0 (complete inhibition) ([10]; A. flavus MMX 7935): 0.5 µg/mL
MIC0 (complete inhibition) ([10]; A. fumigatus ATCC 204305): 0.5 µg/mL
MIC0 (complete inhibition) ([10]; A. fumigatus ATCC MYA-3626): 0.5 µg/mL
MIC0 (complete inhibition) ([10]; A. fumigatus MMX 5934): 0.25 µg/mL
MIC0 (complete inhibition) ([10]; A. fumigatus MMX 5938): 0.25 µg/mL
MIC0 (complete inhibition) ([10]; A. fumigatus MMX 5939): 2 µg/mL
MIC0 (complete inhibition) ([10]; A. niger ATCC 29508): 0.5 µg/mL
MIC0 (complete inhibition) ([10]; A. terreus MMX 8229): 0.25 µg/mL

CCC[C@@H]1C[C@@H](C(=O)N[C@@H]([C@H]2O[C@H](SC)[C@H](O)[C@@H](O)[C@H]2O)[C@H](C)Cl)N(C)C1 [clindamycin, reference compound]
MIC [4]: > 32 µg/mL
MIC [5, 12]: > 8 µg/mL
MIC [5, 13]: > 8 µg/mL
MIC [5, 14]: > 8 µg/mL
MIC [5, 15]: > 8 µg/mL
MIC [5, 16]: > 8 µg/mL

Colistin
FICB ([11]; P. aeruginosa 6322): 1
MICB ([11]; P. aeruginosa 6322): 0.5 µg/mL
Drug B MIC ([11]; P. aeruginosa 6322): 0.5 µg/mL
FICB ([11]; P. aeruginosa 6977): 1
MICB ([11]; P. aeruginosa 6977): 1 µg/mL
Drug B MIC ([11]; P. aeruginosa 6977): 1 µg/mL
FICB ([11]; P. aeruginosa 7745): 1
MICB ([11]; P. aeruginosa 7745): 0.5 µg/mL
Drug B MIC ([11]; P. aeruginosa 7745): 0.5 µg/mL
Drug B MIC ([11]; P. aeruginosa 8798): >256 µg/mL
Drug B MIC ([11]; P. aeruginosa 9108): 0.5 µg/mL
FICB ([1]; B. multivorans 1795, FIC of Colistin in combination with BisEDT): 1
